The source of these data is patent EP1946777A1, “Substituted pyrazoline for preventing weight gain” (Laboratorios del Dr. Esteve S.A., priority 2007, dated 2008).

Where two headings read alike, the source gives them in different places.

Test [1] has as its target T1, rat CB1 receptors (Rattus norvegicus, UniProt P20272).
T1 construct: cerebella from male Wistar rats (250-300g) were carefully dissected on ice and homogenates were prepared; from tissue; host or cells: rat cerebellum (male Wistar) membrane homogenate
The test can be described thus: Affinity for rat CB1 receptors: competitive binding of [3H]-CP 55,940 to rat cerebellum membranes. The note with it: 1 nM [3H]-CP 55,940, rat cerebellum membranes, 1 hour at 30°C. How it is done:
Binding affinity to CB1 receptor was evaluated according to the method of Govaerts et al (2004) with the following modifications Briefly, cerebella from male Wistar rats (250-300g) were carefully dissected on ice and homogenates were prepared in cold 50 mM Tris-HCl, 5 mM MgCl2, 1 mM EDTA, 0.25 M sucrose, pH 7.4 with a Potter-Heljheim homogenizer and the suspension was centrifuged at 1,000 x g for 5 minutes. The supernatants were collected and centrifuged 50,000 x g for 15 min. The resulting pellets were resuspended in Tris-HCl buffer without sucrose, homogenized and incubated for 15 min at 37°C in an orbital shaker bath and centrifuged again at 50,000 x g for 15 min. Pellets were weighed, resuspended in Tris-HCl buffer without sucrose, homogenized with an Ultraturrax at 13,500 rpm for 3 x 5 seconds and aliquoted in 0.9 ml volumes in Eppendorf tubes. Aliquots were centrifuged at 20,800 x g for 5 minutes, supernatants discarded and pellets were frozen at -80°C until use. Total protein concentration was determined using a Bio-Rad commercial assay base on the Lowry method. […]
Binding data were analyzed by non-linear regression with the software GraphPad Prism Version 3.03.

The conditions of test [2]: Figure 5; cited from earlier work.
For test [3] the following is noted: Figure 4; cited from earlier work.

T1 sequence (P20272 whole entry): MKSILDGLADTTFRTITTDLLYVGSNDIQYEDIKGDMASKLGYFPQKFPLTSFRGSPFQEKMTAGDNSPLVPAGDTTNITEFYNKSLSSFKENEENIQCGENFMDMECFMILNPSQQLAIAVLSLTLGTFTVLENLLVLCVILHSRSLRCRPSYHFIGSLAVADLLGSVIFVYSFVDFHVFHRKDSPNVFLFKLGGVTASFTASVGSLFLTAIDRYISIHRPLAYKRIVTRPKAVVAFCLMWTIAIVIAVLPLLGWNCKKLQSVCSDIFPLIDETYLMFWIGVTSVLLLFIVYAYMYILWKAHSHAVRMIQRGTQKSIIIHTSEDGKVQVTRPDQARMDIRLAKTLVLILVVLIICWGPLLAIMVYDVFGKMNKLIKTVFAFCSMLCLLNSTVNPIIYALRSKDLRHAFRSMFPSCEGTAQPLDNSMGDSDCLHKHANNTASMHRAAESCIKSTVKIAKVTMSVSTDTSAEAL

Consider `O=C(NN1CCCCC1)C1=NN(c2ccc(Cl)cc2Cl)C(c2ccc(Cl)cc2)C1` (stereo not shown) [Subgroup A1, Chemical example 1], for which the figures for the IC50 in test [1] (read-out: IC50) and in test [1] (read-out: pIC50 (converted)) were 26 nM and 22.4 nM, respectively.
On to `Cc1c(C(=O)NN2CCCCC2)nn(-c2ccc(Cl)cc2Cl)c1-c1ccc(Cl)cc1` [rimonabant], for which, in test [2], the “ability to prevent antipsychotic-induced weight-gain” value is reported as “only partially effective”.
For the compound `CC(C)CC(N(C)C)C1(c2ccc(Cl)cc2)CCC1` (stereo not shown) [sibutramine], in test [3], the “prevention of antipsychotic-induced weight-gain” value is listed as “Partial prevention of antipsychotic-induced weight-gain”.
